Data on 13 compounds can be found in patent publication US20260297042A1, “BIARYLAMIDE DERIVATIVES AND THEIR USE AS PKMYT1 INHIBITORS” (CANCER RESEARCH TECHNOLOGY LIMITED, priority 2023, published 2026).

In one assay the target is T1, WEE1 (Homo sapiens, UniProt P30291).
T1 construct: purchased Thermo Fisher PR7373A
The experiment in a line: Selectivity versus WEE1 assay (ADP-Glo enzymatic assay). In kind it is biochemical. The conditions noted are these: for IC50: ADP-Glo; for PKMYT1 vs. WEE1 selectivity: fold difference in selectivity for PKMYT1 over WEE1. In a few lines: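 ADP-Glo luminescence read-out after a 60 min reaction at 26° C, initiated by 30 µM ATP, with 15 nM enzyme in HEPES pH 7.5/MgCl2/EGTA/Brij-35 buffer containing 1% DMSO. Replicate IC50 values had to agree within 3-fold and fits needed r2 >0.9.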

The next assay deals with OVCAR 3 cells. Put plainly: Cancer cell line proliferation assay, ATP-based cell viability (Cell Titre Glow), OVCAR 3 (CCNE1-amplified). The conditions noted are these: KYSE30 (normal CCNE1) GI50 vs. OVCAR 3 (CCNE1-amplified) GI50. The gist of the method:
(§1)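 CellTiter-Glo luminescence endpoint; PKMYT1 inhibitor exposure; GI50 = conc. for 50% growth inhibition, curve-fitted.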

Another assay deals with T2, Human PKMYT1 (Homo sapiens, UniProt Q99640).
T2 construct: Human PKMYT1 75-362 was cloned as a TEV cleavable 6xHis fusion; 6xHis (TEV cleavable) (cleaved yes); made in house; host or cells: bacterial cells
T2 sequence (Q99640 75-362): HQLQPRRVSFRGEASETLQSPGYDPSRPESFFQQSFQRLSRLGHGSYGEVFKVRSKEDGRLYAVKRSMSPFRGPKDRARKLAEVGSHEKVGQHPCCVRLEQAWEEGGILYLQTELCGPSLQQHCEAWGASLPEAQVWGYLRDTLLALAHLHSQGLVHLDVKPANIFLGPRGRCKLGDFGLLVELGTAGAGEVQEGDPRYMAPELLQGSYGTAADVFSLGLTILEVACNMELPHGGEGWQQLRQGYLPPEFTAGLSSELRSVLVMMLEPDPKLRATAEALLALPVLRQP
Put plainly: PKMYT1 biochemical ADP-Glo enzymatic assay. The settings on record: ADP-Glo. In a few lines:
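Luminescent ADP-Glo Max read-out of ADP produced by 15 nM PKMYT1 (residues 75-362, bacterial, His-tag removed) from 500 µM ATP without peptide substrate. Reaction: 50 mM HEPES pH 7.5, 10 mM MgCl2, 1 mM EGTA, 0.01% Brij-35, 60 min, 26 °C. IC50 values fitted from 10-point curves.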
A general note: ADP-Glo first removes unused ATP, then detects ADP through luciferase.

Assay [1] addresses T3, Cellular PKMYT1 Biomarker CDK1 pT14 (Homo sapiens, UniProt Q99640).
T3 construct: read-out CDK1 phospho-T14 immunoblot
T3 sequence (Q99640 1-499): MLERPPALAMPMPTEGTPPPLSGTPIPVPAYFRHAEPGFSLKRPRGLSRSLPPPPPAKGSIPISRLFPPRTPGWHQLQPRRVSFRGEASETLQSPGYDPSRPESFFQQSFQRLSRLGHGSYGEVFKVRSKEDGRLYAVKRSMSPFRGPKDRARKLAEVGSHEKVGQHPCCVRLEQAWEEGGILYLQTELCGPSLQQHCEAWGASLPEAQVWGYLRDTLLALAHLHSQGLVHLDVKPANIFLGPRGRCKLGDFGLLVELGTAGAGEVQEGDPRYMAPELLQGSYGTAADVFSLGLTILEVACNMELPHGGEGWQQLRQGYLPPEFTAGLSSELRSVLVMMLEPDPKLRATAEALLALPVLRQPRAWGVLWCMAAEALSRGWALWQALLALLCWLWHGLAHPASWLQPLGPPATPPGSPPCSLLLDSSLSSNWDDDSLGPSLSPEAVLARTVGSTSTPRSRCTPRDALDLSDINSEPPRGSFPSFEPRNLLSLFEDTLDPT
The experiment in a line: Inhibition of cellular PKMYT1 biomarker CDK1 pT14 in OVCAR 3 cells (immunoblot). The assay is classed as cell-based. The conditions noted are these: 20 hours incubation. On the procedure: To determine compound PKMYT1 IC50 in a cellular assay, OVCAR 3 cells were incubated at 37° C. in 5% CO2 atmosphere. The cells were maintained in RPMI medium supplemented with 20% foetal bovine serum, 1X non essential amino acids, 1 mM sodium pyruvate, Glutamax and insulin. Cells were seeded into 12-well plates at low density (50,000-200,000 cells per well), grown to confluence (~350-400,000 cells per well) and then treated with a range of concentrations of PKMYT1 inhibitors. The cells were incubated 20 hours and then harvested into 1X Laemmli Sample Buffer (BIORAD) without 2-mercaptoethanol, heated to 95° C. for 5 min, centrifuged and sonicated using a microprobe for 15 sec, 21W to shear the DNA.
The samples were analysed by immunoblot on a Jess Automated Western Blot System (BioTechne). The samples were separated using the 12-230 kDa Separation Module (BioTechne,) and blotted using an anti-CDK1 phospho T14 antibody (Abcam, #ab58509) and an anti-vinculin antibody (Abcam, #126002). Specific binding was detected by fluorescence using the Anti-Rabbit Detection Module (BioTechne, #DM-001), quantified using Compass for Simple Western software, and IC50 values were calculated by regression analysis in GraphPad Prism.
(A western blot detects proteins with antibodies after separation by electrophoresis.)

The next assay has as its system KYSE-30 cells. Put plainly: Cancer cell line proliferation assay, ATP-based cell viability (Cell Titre Glow), KYSE-30 (normal CCNE1). The settings on record: Homo sapiens, KYSE-30 cells (normal CCNE1), concentration that achieves 50% cell growth proliferation inhibition, read-out: KYSE30 Gl50. The gist of the method:
as §1

Setting [2] is: 15 nM WEE1, 60 minutes at 26° C., banded.
[3] abbreviates: banded, ">N" = at least in this band but could be higher.
Setting [4] is: 15 nM PKMYT1 kinase domain, 500 µM ATP, 60 minutes at 26° C., banded.
Where [5] appears, read: PKMYT1 kinase domain 15 nM, banded values.

T1 sequence (P30291 whole entry): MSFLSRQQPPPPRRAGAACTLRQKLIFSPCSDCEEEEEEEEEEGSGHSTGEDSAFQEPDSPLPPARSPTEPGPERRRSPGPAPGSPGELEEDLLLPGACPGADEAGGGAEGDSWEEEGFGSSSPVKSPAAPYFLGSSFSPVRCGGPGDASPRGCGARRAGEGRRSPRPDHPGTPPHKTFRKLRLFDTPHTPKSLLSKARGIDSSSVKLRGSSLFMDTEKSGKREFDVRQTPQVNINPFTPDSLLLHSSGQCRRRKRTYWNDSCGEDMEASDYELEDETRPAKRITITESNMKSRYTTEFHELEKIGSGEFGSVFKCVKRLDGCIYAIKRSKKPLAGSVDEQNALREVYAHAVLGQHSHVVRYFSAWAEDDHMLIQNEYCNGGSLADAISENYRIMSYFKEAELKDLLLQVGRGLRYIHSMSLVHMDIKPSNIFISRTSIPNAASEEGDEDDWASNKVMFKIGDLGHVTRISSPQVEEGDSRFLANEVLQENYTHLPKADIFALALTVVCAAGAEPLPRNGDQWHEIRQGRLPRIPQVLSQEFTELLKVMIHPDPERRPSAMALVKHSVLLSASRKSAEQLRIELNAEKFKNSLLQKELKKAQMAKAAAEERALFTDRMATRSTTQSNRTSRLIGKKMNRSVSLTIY

In general, IC50 refers to the concentration that inhibits the measured activity by half. Lower therefore signals greater potency. For `Cc1ccc(O)c(C)c1NC(=O)c1cnc(Nc2nn(C)c3ccccc23)s1` [BAA-126, N-(3-hydroxy-2,6-dimethyl-phenyl)-2-[(1-methylindazol-3-yl)amino]thiazole-5-carboxamide], the IC50 on WEE1 (setting [2]) was 1 to 11 µM; at Human PKMYT1 (setting [4]) it was less than 50 nM; in assay [1] it was less than 100 nM. The “PKMYT1 vs. WEE1 selectivity” value at WEE1 (setting [3]) is given as “X (100-<1000 fold)”. For the same compound, the “Selectivity ratio KYSE30 Gl50 vs. OVCAR3 Gl50” value in the assay on OVCAR 3 cells is reported as “Y (>20 fold)”. In the assay on KYSE-30 cells, the GI50 was more than 5 µM.
With `Cc1nc(Nc2ncc(C(=O)Nc3c(C)ccc(O)c3C)s2)cc(N2CCN(CCO)CC2)n1` [BAA-220, N-(3-hydroxy-2,6-dimethyl-phenyl)-2-[[6-[4-(2-hydroxyethyl)piperazin-1-yl]-2-methyl-pyrimidin-4-yl]amino]thiazole-5-carboxamide], the IC50 at WEE1 (setting [2]) was 0.05 to 1 µM; against Human PKMYT1 (setting [4]), less than 50 nM; in assay [1] it was 100 to 1000 nM. Also, the “PKMYT1 vs. WEE1 selectivity” value at WEE1 (setting [3]) is given as “W (10-<100 fold)”. Besides, the “Selectivity ratio KYSE30 Gl50 vs. OVCAR3 Gl50” value with OVCAR 3 cells is reported as “Y (>20 fold)”. Further, in the assay with KYSE-30 cells, the GI50 is more than 5 µM.
With `Cc1ccc(O)c(C)c1NC(=O)c1cnc(Nc2c3cccnc3nn2C)s1` [BAA-243, N-(3-hydroxy-2,6-dimethylphenyl)-2-((2-methyl-2H-pyrazolo[3,4-b]pyridin-3-yl)amino)thiazole-5-carboxamide], the IC50 was 1 to 11 µM against WEE1 (setting [2]), less than 50 nM on Human PKMYT1 (setting [4]) and less than 100 nM in assay [1]. On WEE1 (setting [3]), the “PKMYT1 vs. WEE1 selectivity” value is given as “X (100-<1000 fold)”. Also, in the assay with OVCAR 3 cells, the “Selectivity ratio KYSE30 Gl50 vs. OVCAR3 Gl50” value was “X (3-20 fold)”. Besides, in the assay on KYSE-30 cells, the GI50 is more than 5 µM.
As for `Cc1cn(S(=O)(=O)C(C)C)nc1Nc1ncc(C(=O)Nc2c(C)ccc(O)c2C)s1` [BAA-268, N-(3-hydroxy-2,6-dimethylphenyl)-2-((1-(isopropylsulfonyl)-4-methyl-1H-pyrazol-3-yl)amino) thiazole-5-carboxamide], the IC50 is more than 11 µM at WEE1 (setting [2]), less than 50 nM against Human PKMYT1 (setting [4]) and less than 100 nM in assay [1]. Also, on WEE1 (setting [3]), the “PKMYT1 vs. WEE1 selectivity” value is reported as “Y (1000-5000 fold)”. Also, the “Selectivity ratio KYSE30 Gl50 vs. OVCAR3 Gl50” value in the assay with OVCAR 3 cells is reported as “Y (>20 fold)”. The GI50 in the assay with KYSE-30 cells is more than 5 µM.
In the case of `Cc1cn(C2COC2)nc1Nc1ncc(C(=O)Nc2c(C)ccc(O)c2C)s1` [BAA-269, N-(3-hydroxy-2,6-dimethylphenyl)-2-((4-methyl-1-(oxetan-3-yl)-1H-pyrazol-3-yl)amino) thiazole-5-carboxamide], the results for the IC50 (against WEE1 (setting [2]); against Human PKMYT1 (setting [4]); in assay [1]) were 0.05 to 1 µM, less than 50 nM and less than 100 nM, respectively. Further, the “PKMYT1 vs. WEE1 selectivity” value at WEE1 (setting [3]) is recorded as “W (10-<100 fold)”. The “Selectivity ratio KYSE30 Gl50 vs. OVCAR3 Gl50” value in the assay on OVCAR 3 cells was “Y (>20 fold)”. The GI50 with KYSE-30 cells lay in the range of 0.5 to 5 µM.
Take `Cc1cn(C2CCC2)nc1Nc1ncc(C(=O)Nc2c(C)ccc(O)c2C)s1` [BAA-270, 2-((1-cyclobutyl-4-methyl-1H-pyrazol-3-yl)amino)-N-(3-hydroxy-2,6-dimethylphenyl)thiazole-5-carboxamide]: the figures for the IC50 (at WEE1 (setting [2]); against Human PKMYT1 (setting [4]); in assay [1]) were 1 to 11 µM, less than 50 nM and less than 100 nM, respectively. Further, the “PKMYT1 vs. WEE1 selectivity” value at WEE1 (setting [3]) is “X (100-<1000 fold)”. Further, the “Selectivity ratio KYSE30 Gl50 vs. OVCAR3 Gl50” value in the assay with OVCAR 3 cells is reported as “Y (>20 fold)”. In addition, the GI50 in the assay with KYSE-30 cells was less than 0.5 µM.
As to `Cc1cn(CC(F)(F)F)nc1Nc1ncc(C(=O)Nc2c(C)ccc(O)c2C)s1` [BAA-271, N-(3-hydroxy-2,6-dimethylphenyl)-2-((4-methyl-1-(2,2,2-trifluoroethyl)-1H-pyrazol-3-yl)amino) thiazole-5-carboxamide], the IC50 was more than 11 µM against WEE1 (setting [2]), less than 50 nM against Human PKMYT1 (setting [4]) and less than 100 nM in assay [1]. At WEE1 (setting [3]), the “PKMYT1 vs. WEE1 selectivity” value is reported as “X (100-<1000 fold)”. Further, the “Selectivity ratio KYSE30 Gl50 vs. OVCAR3 Gl50” value with OVCAR 3 cells is reported as “Y (>20 fold)”. In the assay with KYSE-30 cells, the GI50 was more than 5 µM.
Consider `Cc1ccc(O)c(C)c1NC(=O)c1cnc(Nc2nccc3ccc(F)cc23)s1` [BAA-303, 2-((7-fluoroisoquinolin-1-yl)amino)-N-(3-hydroxy-2,6-dimethylphenyl)thiazole-5-carboxamide], for which the IC50 against WEE1 (setting [2]) is more than 11 µM; against Human PKMYT1 (setting [4]), less than 50 nM; in assay [1], less than 100 nM. Also, the “PKMYT1 vs. WEE1 selectivity” value on WEE1 (setting [3]) is “Y (1000-5000 fold)”. Moreover, in the assay with OVCAR 3 cells, the “Selectivity ratio KYSE30 Gl50 vs. OVCAR3 Gl50” value is reported as “X (3-20 fold)”. Moreover, in the assay with KYSE-30 cells, the GI50 was in the range of 0.5 to 5 µM.
For `Cc1ccc(O)c(C)c1NC(=O)c1cnc(Nc2cccc(CC(=O)N(C)C3CC3)n2)s1` [BAA-428, 2-((6-(2-(Cyclopropyl(methyl)amino)-2-oxoethyl)pyridin-2-yl)amino)-N-(3-hydroxy-2,6-dimethylphenyl)thiazole-5-carboxamide], in the assay with OVCAR 3 cells, the “Selectivity ratio KYSE30 Gl50 vs. OVCAR3 Gl50” value is recorded as “Y (>20 fold)”. The IC50 was less than 50 nM against Human PKMYT1 (setting [5]) and less than 100 nM in assay [1]. In addition, the GI50 in the assay on KYSE-30 cells is more than 5 µM.
With `Cc1cc(Nc2ncc(C(=O)Nc3c(C)ccc(O)c3C)s2)ncn1` [BAA-580, N-(3-hydroxy-2,6-dimethylphenyl)-2-((6-methylpyrimidin-4-yl)amino)thiazole-5-carboxamide], the IC50 was 1 to 11 µM on WEE1 (WEE1 15 nM, banded values); less than 50 nM on Human PKMYT1 (setting [5]); 100 to 1000 nM in assay [1]. The “PKMYT1 vs. WEE1 selectivity” value at WEE1 (banded) is “X (100-<1000 fold)”.
In the same order, the values of `Cc1ccc(O)c(C)c1NC(=O)c1cnc(Nc2n[nH]cc2F)s1` [BAA-593, 2-((4-Fluoro-1H-pyrazol-3-yl)amino)-N-(3-hydroxy-2,6-dimethylphenyl)thiazole-5-carboxamide] are 1 to 11 µM, less than 50 nM, 100 to 1000 nM and “X (100-<1000 fold)”.
In the same order, the values of `Cc1ccc(O)c(C)c1NC(=O)c1cnc(Nc2ccn(C3CCN(C)C3=O)n2)s1` (centres unmarked) [BAA-601, N-(3-hydroxy-2,6-dimethylphenyl)-2-((1-(1-methyl-2-oxopyrrolidin-3-yl)-1H-pyrazol-3-yl)amino)thiazole-5-carboxamide] are more than 11 µM, less than 50 nM, 100 to 1000 nM and “X (100-<1000 fold)”.
Take `Cc1ccc(O)c(C)c1NC(=O)c1cnc(Nc2nccc3cccnc23)s1` [BAA-604, 2-((1,7-naphthyridin-8-yl)amino)-N-(3-hydroxy-2,6-dimethylphenyl)thiazole-5-carboxamide]: the IC50 against WEE1 (WEE1 15 nM, banded values) is more than 11 µM; against Human PKMYT1 (setting [5]), less than 50 nM; in assay [1], 100 to 1000 nM. Also, the “PKMYT1 vs. WEE1 selectivity” value at WEE1 (banded) was “Y (1000-5000 fold)”.
